The results in this text go back to patent US12110276B2 (Genentech, Inc., priority 2021, dated 2024).

Structures can show the parent of a compound that is named as a salt.

One assay addresses TEAD1 (Homo sapiens (Human), UniProt P28347). In words: TR-FRET lipid pocket probe competition assay (Lipid HTRF), TEAD1.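 Note: His-tagged TEAD1 with biotinylated probe, detected via Europium anti-His and XL665 streptavidin, probe displacement lowers TR-FRET signal, IC50 from four-parameter nonlinear fit.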 As to conditions: 4 hours pre-incubation; read-out: Lipid HTRF TEAD1 IC50. The format is binding. For orientation: TR-FRET usually uses a lanthanide donor and a delayed reading to cut background.
The target in another assay is TEAD4 (Homo sapiens (Human), UniProt Q15561). In words: TR-FRET lipid pocket probe competition assay (Lipid HTRF), TEAD4.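 Note: His-tagged TEAD4 with biotinylated lipid-pocket probe, read by Europium anti-His and XL665 streptavidin, where probe displacement lowers the TR-FRET signal, IC50 from a four-parameter fit.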 Conditions: 4 hours pre-incubation; read-out: Lipid HTRF TEAD4 IC50. The format is binding.
Chain of TEAD4 (Q15561 whole entry, species assumed): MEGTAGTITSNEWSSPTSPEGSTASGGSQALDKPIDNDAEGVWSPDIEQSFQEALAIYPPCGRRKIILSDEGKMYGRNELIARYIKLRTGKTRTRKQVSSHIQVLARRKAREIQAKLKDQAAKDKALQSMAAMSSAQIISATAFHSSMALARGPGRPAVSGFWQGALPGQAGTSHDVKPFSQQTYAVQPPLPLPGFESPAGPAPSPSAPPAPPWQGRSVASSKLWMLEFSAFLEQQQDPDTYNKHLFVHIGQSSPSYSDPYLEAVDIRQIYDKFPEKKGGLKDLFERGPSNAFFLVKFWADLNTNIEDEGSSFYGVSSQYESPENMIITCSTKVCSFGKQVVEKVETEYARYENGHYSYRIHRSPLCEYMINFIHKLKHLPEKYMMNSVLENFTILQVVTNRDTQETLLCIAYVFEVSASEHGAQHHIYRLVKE
Another assay deals with TEAD3 (Homo sapiens (Human), UniProt Q99594). In words: TR-FRET lipid pocket probe competition assay (Lipid HTRF), TEAD3. The format is binding. As to conditions: 4 hours pre-incubation; read-out: Lipid HTRF TEAD3 IC50.
Chain of TEAD3 (Q99594 whole entry, species assumed): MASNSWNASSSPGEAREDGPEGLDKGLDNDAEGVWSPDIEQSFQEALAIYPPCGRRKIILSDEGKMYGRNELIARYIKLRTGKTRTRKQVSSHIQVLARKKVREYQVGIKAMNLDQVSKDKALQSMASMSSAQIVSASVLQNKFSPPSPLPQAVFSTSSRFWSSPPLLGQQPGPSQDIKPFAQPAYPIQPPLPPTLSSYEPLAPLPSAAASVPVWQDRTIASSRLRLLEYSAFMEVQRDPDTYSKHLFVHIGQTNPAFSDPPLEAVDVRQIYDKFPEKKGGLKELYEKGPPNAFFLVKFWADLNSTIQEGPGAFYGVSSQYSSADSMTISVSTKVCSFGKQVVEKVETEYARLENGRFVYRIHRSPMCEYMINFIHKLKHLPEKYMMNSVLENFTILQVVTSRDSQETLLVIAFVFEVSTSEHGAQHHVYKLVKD
The target in another assay is TEAD2 (Homo sapiens (Human), UniProt Q15562).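 Note: TR-FRET competition assay with His-tagged TEAD protein and a biotinylated lipid pocket probe, compound pre-incubated 30 min or 4 h at room temperature, displacement lowers signal.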
Chain of TEAD2 (Q15562 whole entry, species assumed): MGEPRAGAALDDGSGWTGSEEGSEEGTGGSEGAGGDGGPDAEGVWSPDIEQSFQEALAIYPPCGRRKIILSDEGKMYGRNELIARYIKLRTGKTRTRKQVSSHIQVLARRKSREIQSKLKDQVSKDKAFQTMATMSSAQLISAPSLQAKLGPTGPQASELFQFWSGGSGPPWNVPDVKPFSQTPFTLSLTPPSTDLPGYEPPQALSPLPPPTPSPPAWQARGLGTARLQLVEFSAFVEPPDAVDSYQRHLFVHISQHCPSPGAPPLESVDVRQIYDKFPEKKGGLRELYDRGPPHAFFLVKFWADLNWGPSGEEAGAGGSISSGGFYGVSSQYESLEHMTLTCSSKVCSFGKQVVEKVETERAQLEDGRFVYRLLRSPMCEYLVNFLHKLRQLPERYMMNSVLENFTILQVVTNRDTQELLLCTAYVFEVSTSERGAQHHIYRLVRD

Chain of TEAD1 (P28347 whole entry, species assumed): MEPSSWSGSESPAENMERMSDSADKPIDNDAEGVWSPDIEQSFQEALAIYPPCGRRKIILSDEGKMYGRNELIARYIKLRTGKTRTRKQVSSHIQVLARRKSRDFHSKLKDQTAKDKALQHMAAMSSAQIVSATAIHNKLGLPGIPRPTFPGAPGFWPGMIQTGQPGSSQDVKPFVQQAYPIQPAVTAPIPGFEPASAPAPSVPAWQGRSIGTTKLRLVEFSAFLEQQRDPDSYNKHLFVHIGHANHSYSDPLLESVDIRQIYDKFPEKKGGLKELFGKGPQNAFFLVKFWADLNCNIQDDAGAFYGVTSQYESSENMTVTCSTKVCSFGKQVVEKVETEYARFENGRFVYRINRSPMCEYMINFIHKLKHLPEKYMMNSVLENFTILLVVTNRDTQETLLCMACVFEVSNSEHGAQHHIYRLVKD

For the compound `C=CC(=O)NCc1nn(-c2ccc(S(F)(F)(F)(F)F)cc2)c2cccc([C@@H](O)CO)c12` (single isomer, unassigned) [Compound 10, N-((4-(1,2-dihydroxyethyl)-1-(4-(pentafluoro-λ^6-sulfanyl)phenyl)-1H-indazol-3-yl)methyl)acrylamide], the IC50 (in general, the concentration at which inhibition is half-maximal) on TEAD1 amounted to 100 nM; at TEAD4 it was 49 nM; on TEAD3 it was 560 nM; on TEAD2 it was 180 nM.
As to `C=CC(=O)NCc1nn(-c2ccc(S(F)(F)(F)(F)F)cc2)c2cccc([C@H](O)CO)c12` (single isomer, unassigned) [Compound 11, N-((4-(1,2-dihydroxyethyl)-1-(4-(pentafluoro-λ^6-sulfanyl)phenyl)-1H-indazol-3-yl)methyl)acrylamide], the IC50 at TEAD1 was 23 nM; at TEAD4, 17 nM; at TEAD3, 1300 nM; against TEAD2 it was 86 nM.
Consider `C=CC(=O)NCc1nn(-c2ccc(OC(F)(F)F)cc2)c2nccc([C@@H](O)CO)c12` (stereo in doubt) [Compound 16, N-((4-(1,2-dihydroxyethyl)-1-(4-(trifluoromethoxy)phenyl)-1H-pyrazolo[3,4-b]pyridin-3-yl)methyl)acrylamide], for which the IC50 on TEAD1 amounted to 230 nM; at TEAD4, 61 nM; on TEAD3 it was 680 nM; against TEAD2, 120 nM.
The corresponding values for `C=CC(=O)NCc1nn(-c2ccc(OC(F)(F)F)cc2)c2nccc(N3CCC[C@H](O)C3)c12` (stereo in doubt) [Compound 33, N-((4-(3-hydroxypiperidin-1-yl)-1-(4-(trifluoromethoxy)phenyl)-1H-pyrazolo[3,4-b]pyridin-3-yl)methyl)acrylamide] are 25 nM, 11 nM, 17000 nM and 110 nM.
As for `C=CC(=O)NCc1nn(-c2ccc(OC(F)(F)F)cc2)c2nccc(N3CCC[C@@H](O)C3)c12` (stereo in doubt) [Compound 65, N-((4-(3-hydroxypiperidin-1-yl)-1-(4-(trifluoromethoxy)phenyl)-1H-pyrazolo[3,4-b]pyridin-3-yl)methyl)acrylamide], the IC50 at TEAD1 was 150 nM; on TEAD4, 31 nM; on TEAD3, 27000 nM; against TEAD2, 99 nM.
`C=CC(=O)NCc1nn(-c2ccc(S(F)(F)(F)(F)F)cc2)c2ccccc12` [Compound 3, N-((1-(4-(pentafluoro-λ^6-sulfanyl)phenyl)-1H-indazol-3-yl)methyl)acrylamide]: the IC50 worked out at 7 nM on TEAD1, 7.9 nM at TEAD4, 210 nM at TEAD3 and 250 nM on TEAD2.
In the case of `C=CC(=O)NCc1nn(-c2ccc(OC(F)(F)F)cc2)c2cccc(CO)c12` [Compound 4, N-((4-(hydroxymethyl)-1-(4-(trifluoromethoxy)phenyl)-1H-indazol-3-yl)methyl)acrylamide], the IC50 at TEAD1 stood at 23 nM; on TEAD4 it was 59 nM; at TEAD3, 270 nM; on TEAD2, 140 nM.
With `C=CC(=O)NCc1nn(-c2ccc(S(F)(F)(F)(F)F)cc2)c2cccc(CO)c12` [Compound 5, N-((4-(hydroxymethyl)-1-(4-(pentafluoro-λ^6-sulfanyl)phenyl)-1H-indazol-3-yl)methyl)acrylamide], the IC50 at TEAD1 amounted to 17 nM; at TEAD4 it was 37 nM; on TEAD3 it was 270 nM; at TEAD2, 310 nM.
Take `C=CC(=O)NCc1nn(-c2ccc(S(F)(F)(F)(F)F)cc2)c2cccnc12` [Compound 12, N-((1-(4-(pentafluoro-λ^6-sulfanyl)phenyl)-1H-pyrazolo[4,3-b]pyridin-3-yl)methyl)acrylamide]: the IC50 was 48 nM on TEAD1, 43 nM on TEAD4, 630 nM on TEAD3 and 2800 nM at TEAD2.
`C=CC(=O)NCc1nn(-c2ccc(S(F)(F)(F)(F)F)cc2)c2ncccc12` [Compound 13, N-((1-(4-(pentafluoro-λ^6-sulfanyl)phenyl)-1H-pyrazolo[3,4-b]pyridin-3-yl)methyl)acrylamide]: the IC50 on TEAD1 was 10 nM; on TEAD4, 8.6 nM; at TEAD3, 230 nM; against TEAD2, 330 nM.
In the case of `C=CC(=O)NCc1nn(-c2ccc(S(F)(F)(F)(F)F)cc2)c2cccc(C#N)c12` [Compound 14, N-((4-cyano-1-(4-(pentafluoro-λ^6-sulfanyl)phenyl)-1H-indazol-3-yl)methyl)acrylamide], the IC50 is 84 nM at TEAD1, 33 nM on TEAD4, 140 nM at TEAD3 and 50000 nM at TEAD2.
Regarding `C=CC(=O)N(C)Cc1nn(-c2ccc(OC(F)(F)F)cc2)c2ccccc12` [Compound 18, N-methyl-N-((1-(4-(trifluoromethoxy)phenyl)-1H-indazol-3-yl)methyl)acrylamide], the half-maximal inhibitory concentration (IC50) came to 6.8 nM at TEAD1, 3.4 nM at TEAD4, 100 nM on TEAD3 and 66 nM against TEAD2.
Turning to `C=C(F)C(=O)N1CC(c2nn(-c3ccc(OC(F)(F)F)cc3)c3nccc([C@@H](O)CO)c23)C1` [Compound 21, 1-[3-[4-[(1R)-1,2-dihydroxyethyl]-1-[4-(trifluoromethoxy)phenyl]pyrazolo[3,4-b]pyridin-3-yl]azetidin-1-yl]-2-fluoro-prop-2-en-1-one], the IC50 stood at 21.5 nM on TEAD1, 13 nM on TEAD4, 38.5 nM on TEAD3 and 7.2 nM on TEAD2.
Taken in the same sequence, the figures for `C=CC(=O)NCc1nn(-c2ccc(OC(F)(F)F)cc2)c2nccc(NC(=O)CO)c12` [Compound 24, N-((4-(2-Hydroxyacetamido)-1-(4-(trifluoromethoxy)phenyl)-1H-pyrazolo[3,4-b]pyridin-3-yl)methyl)acrylamide] were 18.5 nM, 45.5 nM, 405 nM and 130 nM.
Consider `C=CC(=O)NCc1nn(-c2ccc(OC(F)(F)F)cc2)c2nccc(C(=O)NCCO)c12` [Compound 25, 3-(Acrylamidomethyl)-N-(2-hydroxyethyl)-1-(4-(trifluoromethoxy)phenyl)-1H-pyrazolo[3,4-b]pyridine-4-carboxamide], for which the IC50 was 960 nM on TEAD1, 95 nM at TEAD4, 3700 nM on TEAD3 and 6000 nM against TEAD2.
`O=C(/C=C\Cl)NCc1nn(-c2ccc(OC(F)(F)F)cc2)c2nccc([C@@H](O)CO)c12` [Compound 26, (R,Z)-3-chloro-N-((4-(1,2-dihydroxyethyl)-1-(4-(trifluoromethoxy)phenyl)-1H-pyrazolo[3,4-b]pyridin-3-yl)methyl)acrylamide]: the concentration for half-maximal inhibition (IC50) on TEAD1 came out at 140 nM; on TEAD4 it was 14 nM; at TEAD3, 50000 nM; at TEAD2, 160 nM.
Turning to `C=C(F)C(=O)N1CC(c2nn(-c3ccc(OC(F)(F)F)cc3)c3nccc(-c4cnn(CCO)c4)c23)C1` [Compound 28, 2-Fluoro-1-(3-(4-(1-(2-hydroxyethyl)-1H-pyrazol-4-yl)-1-(4-(trifluoromethoxy)phenyl)-1H-pyrazolo[3,4-b]pyridin-3-yl)azetidin-1-yl)prop-2-en-1-one], the IC50 at TEAD1 worked out at 23 nM; at TEAD4, 33 nM; on TEAD3 it was 5700 nM; on TEAD2, 220 nM.
As for `C=CC(=O)NCc1nn(-c2ccc(OC(F)(F)F)cc2)c2nccc(C(=O)NC)c12` [Compound 30, 3-(Acrylamidomethyl)-N-methyl-1-(4-(trifluoromethoxy)phenyl)-1H-pyrazolo[3,4-b]pyridine-4-carboxamide], the IC50 at TEAD1 turned out to be 490 nM; on TEAD4, 180 nM; on TEAD3 it was 2600 nM; at TEAD2 it was 1500 nM.
The corresponding values for `C=C(F)C(=O)N1CC(c2nn(-c3ccc(OC(F)(F)F)cc3)c3nccc([C@H](O)CO)c23)C1` [Compound 31, (S)-1-(3-(4-(1,2-dihydroxyethyl)-1-(4-(trifluoromethoxy)phenyl)-1H-pyrazolo[3,4-b]pyridin-3-yl)azetidin-1-yl)-2-fluoroprop-2-en-1-one] are 35 nM, 25.5 nM, 62 nM and 32 nM.
Take `C=CC(=O)NCc1nn(-c2ccc(OC(F)(F)F)cc2)c2nccc(CO)c12` [Compound 32, N-((4-(Hydroxymethyl)-1-(4-(trifluoromethoxy)phenyl)-1H-pyrazolo[3,4-b]pyridin-3-yl)methyl)acrylamide]: the IC50 stood at 13 nM at TEAD1, 25 nM at TEAD4, 220 nM at TEAD3 and 57 nM against TEAD2.
The corresponding values for `C=CC(=O)NCc1nn(-c2ccc(OC(F)(F)F)cc2)c2nccc(O[C@H]3C[C@@H](O)C3)c12` [Compound 34, N-((4-(cis-3-Hydroxycyclobutoxy)-1-(4-(trifluoromethoxy)phenyl)-1H-pyrazolo[3,4-b]pyridin-3-yl)methyl)acrylamide] are 23 nM, 39 nM, 50000 nM and 340 nM.
On to `C=CC(=O)NCc1nn(-c2ccc(OC(F)(F)F)cc2)c2nccc([C@H](O)COC(=O)CN)c12` [Compound 145, (S)-2-(3-(Acrylamidomethyl)-1-(4-(trifluoromethoxy)phenyl)-1H-pyrazolo[3,4-b]pyridin-4-yl)-2-hydroxyethyl 2-aminoacetate formate], for which the IC50 on TEAD1 is 140 nM; on TEAD4, 49 nM; against TEAD2 it was 71 nM.
Taken in the same sequence, the figures for `C=CC(=O)NCc1nn(-c2ccc(OC(F)(F)F)cc2)c2nccc([C@H](O)COC(C)=O)c12` [Compound 146, (S)-2-(3-(Acrylamidomethyl)-1-(4-(trifluoromethoxy)phenyl)-1H-pyrazolo[3,4-b]pyridin-4-yl)-2-hydroxyethyl acetate] were 40 nM, 28 nM and 66 nM.
